Measurements reported in US11891634B2, “PDE5A destabilizing domains” (The Board of Trustees of the Leland Stanford Junior …, priority 2017, dated 2024).

Assays:
Type in all cases: cell-based, human
[1] = system: HCT 116 cells transduced with the PDE5A DD derived GFP constructs; experiment: Response to Vardenafil, GFP expression by FACS in HCT116; conditions: for MFI / Stabilization ratio with Vardenafil: 48 hours, HCT116; for Basal (DMSO/Parental): Table 10, GFP signal without ligand / auto fluorescence of parental HCT-116; for Basal: Table 15, MFI with DMSO / parental HCT116, Vardenafil experiment
Method: (§1) Mutations were created in PDE5A (535-860) catalytic domain using site directed mutagenesis and the mutants were cloned as AcGFP fusion into pELNS vector carrying mCherry marker and packaged in lentiviral vectors. HCT116 cells were transduced with the constructs and stable integrants were selected by cell sorting using mCherry marker. Cells were treated with vehicle (dimethyl sulfoxide, DMSO) or 10 μM Vardenafil (VDF) for 48 hours. Following the treatment, cells were analyzed for GFP expression using FACS. Basal expression was calculated as the ratio of GFP signal in the absence of ligand for a given cell line to auto fluorescence of parental HCT-116 cells. Stabilization ratio was calculated as the ratio of the GFP signal observed in the presence of stabilizing ligand to the signal from the same cell line in the absence of ligand.
HCT 116 cells transduced with the PDE5A DD derived GFP constructs were also tested with increasing doses of Vardenafil. The HCT116 cells were incubated for 48 hours with Vardenafil starting at a dose of 0.002 μM to 30 μM. The GFP intensity of the Vardenafil treated samples was compared to the parental untransduced HCT116 and DMSO treated cells for each construct. The mean fluorescence intensity was calculated for each sample and used to calculate the stabilization ratios as well as the basal expression for each construct. The GFP expression was measured using flow cytometry and the mean fluorescence intensity (MFI) was calculated for each sample. The stabilization ratios are shown in Table 13 and Table 14 and the basal expression is show in Table 15.

[2] = system: HCT116 cells transduced with the constructs; experiment: Response to Sildenafil, GFP expression by flow cytometry in HCT116; conditions: for MFI / Stabilization ratio with Sildenafil: 48 hours, HCT116; for Basal expression: Table 26, MFI with DMSO / parental HCT116, Sildenafil experiment
Method: Similar experiments were performed in HCT116 cells using sildenafil. The above-mentioned DDs were cloned as AcGFP fusion into pELNS vector carrying mCherry marker and packaged in lentiviral vectors. HCT116 cells were transduced with the constructs and stable integrants were selected by cell sorting using mCherry marker. Cells were treated with sildenafil at the following μM concentrations: 0.01, 0.02, 0.05, 0.14, 0.41, 1.23, 3.7, 11.11, 33.33, and 100 for a duration of 48 hours. The fluorescence was analyzed by flow cytometry and the mean fluorescence intensity was calculated for all samples. […] The stabilization ratios are shown in Table 24 and Table 25 and the basal expression is show in Table 26.

[3] = system: HCT 116 cells transduced with the PDE5A DD derived GFP constructs; experiment: Response to Tadalafil, GFP expression by FACS in HCT116; conditions: for MFI / Stabilization ratio with Tadalafil: 48 hours, HCT116; for Basal expression: Table 21, MFI with DMSO / parental HCT116, Tadalafil experiment
Method: as §1, with “PDE5AN (#3) was” for “Mutations were created in PDE5A (535-860) catalytic domain using site directed mutagenesis and the mutants were”, “construct” for “constructs”, “varying doses of Tadalafil (TDF)” for “10 μM Vardenafil (VDF)”, “hrs with doses ranging from 0.01 μM to 100 μM.” for “hours.”
HCT 116 cells transduced with the PDE5A DD derived GFP constructs were also tested with increasing doses of Tadalafil. The HCT116 cells were incubated for 48 hours with Tadalafil starting at dose 0.01 μM to 100 μM. The GFP intensity of the Tadalafil treated samples was compared to the parental untransduced HCT116 and DMSO treated cells for each construct. The mean fluorescence intensity was calculated for each sample and used to calculate the stabilization ratios as well as the basal expression for each construct. The stabilization ratios are shown in Table 19 and Table 20 and the basal expression is show in Table 21.

Substance: PDE5AN (#53): N-terminal DD 535-860 of PDE5A (E536G, Q589R, C839S), SEQ ID NO. 67, fused to AcGFP
- MFI ([1]; DMSO (no Vardenafil)): 14196
- Basal (DMSO/Parental) [1]: 14.0
- Basal [1]: 7.27
- Stabilization ratio with Vardenafil ([1]; Vardenafil 0.002 μM vs DMSO): 1.0
- MFI ([1]; Vardenafil 0.002 μM): 14117
- Stabilization ratio with Vardenafil ([1]; Vardenafil 0.005 μM vs DMSO): 1.0
- MFI ([1]; Vardenafil 0.005 μM): 14485
- Stabilization ratio with Vardenafil ([1]; Vardenafil 0.014 μM vs DMSO): 1.1
- MFI ([1]; Vardenafil 0.014 μM): 15735
- Stabilization ratio with Vardenafil ([1]; Vardenafil 0.041 μM vs DMSO): 1.2
- MFI ([1]; Vardenafil 0.041 μM): 17260
- Stabilization ratio with Vardenafil ([1]; Vardenafil 0.123 μM vs DMSO): 1.8
- MFI ([1]; Vardenafil 0.123 μM): 25577
- Stabilization ratio with Vardenafil ([1]; Vardenafil 0.370 μM vs DMSO): 3.1
- MFI ([1]; Vardenafil 0.370 μM): 43744
- Stabilization ratio with Vardenafil ([1]; Vardenafil 1.111 μM vs DMSO): 5.7
- MFI ([1]; Vardenafil 1.111 μM): 81455
- Stabilization ratio with Vardenafil ([1]; Vardenafil 3.333 μM vs DMSO): 9.2
- MFI ([1]; Vardenafil 3.333 μM): 131016
- Stabilization ratio with Vardenafil ([1]; Vardenafil 10 μM vs DMSO): 12.2
- MFI ([1]; Vardenafil 10 μM): 173576
- Stabilization ratio with Vardenafil ([1]; Vardenafil 30 μM vs DMSO): 13.3
- MFI ([1]; Vardenafil 30 μM): 188519
- MFI ([2]; DMSO (no Sildenafil)): 13747
- Stabilization ratio with Sildenafil ([2]; Sildenafil 0.01 μM vs DMSO): 0.9
- MFI ([2]; Sildenafil 0.01 μM): 12801
- Stabilization ratio with Sildenafil ([2]; Sildenafil 0.02 μM vs DMSO): 1.0
- MFI ([2]; Sildenafil 0.02 μM): 14045
- Stabilization ratio with Sildenafil ([2]; Sildenafil 0.05 μM vs DMSO): 1.0
- MFI ([2]; Sildenafil 0.05 μM): 13801
- Stabilization ratio with Sildenafil ([2]; Sildenafil 0.14 μM vs DMSO): 1.0
- MFI ([2]; Sildenafil 0.14 μM): 14048
- Stabilization ratio with Sildenafil ([2]; Sildenafil 0.41 μM vs DMSO): 1.2
- MFI ([2]; Sildenafil 0.41 μM): 16175
- Stabilization ratio with Sildenafil ([2]; Sildenafil 1.23 μM vs DMSO): 1.5
- MFI ([2]; Sildenafil 1.23 μM): 20410
- Stabilization ratio with Sildenafil ([2]; Sildenafil 3.70 μM vs DMSO): 2.2
- MFI ([2]; Sildenafil 3.70 μM): 30372
- Stabilization ratio with Sildenafil ([2]; Sildenafil 11.11 μM vs DMSO): 4.3
- MFI ([2]; Sildenafil 11.11 μM): 59723
- Stabilization ratio with Sildenafil ([2]; Sildenafil 33.33 μM vs DMSO): 7.2
- MFI ([2]; Sildenafil 33.33 μM): 99558
- Stabilization ratio with Sildenafil ([2]; Sildenafil 100.00 μM vs DMSO): 8.6
- MFI ([2]; Sildenafil 100.00 μM): 117792
- Basal expression [2]: 10.7
- MFI ([3]; DMSO (no Tadalafil)): 12071
- Basal expression [3]: 9.43
- Stabilization ratio with Tadalafil ([3]; Tadalafil 0.01 μM vs DMSO): 1.0
- MFI ([3]; Tadalafil 0.01 μM): 11635
- Stabilization ratio with Tadalafil ([3]; Tadalafil 0.02 μM vs DMSO): 1.0
- MFI ([3]; Tadalafil 0.02 μM): 11690
- Stabilization ratio with Tadalafil ([3]; Tadalafil 0.05 μM vs DMSO): 1.0
- MFI ([3]; Tadalafil 0.05 μM): 12100
- Stabilization ratio with Tadalafil ([3]; Tadalafil 0.14 μM vs DMSO): 1.0
- MFI ([3]; Tadalafil 0.14 μM): 12331
- Stabilization ratio with Tadalafil ([3]; Tadalafil 0.41 μM vs DMSO): 1.1
- MFI ([3]; Tadalafil 0.41 μM): 13422
- Stabilization ratio with Tadalafil ([3]; Tadalafil 1.23 μM vs DMSO): 1.3
- MFI ([3]; Tadalafil 1.23 μM): 16255
- Stabilization ratio with Tadalafil ([3]; Tadalafil 3.7 μM vs DMSO): 2.0
- MFI ([3]; Tadalafil 3.7 μM): 24201
- Stabilization ratio with Tadalafil ([3]; Tadalafil 11.11 μM vs DMSO): 3.5
- MFI ([3]; Tadalafil 11.11 μM): 42644
- Stabilization ratio with Tadalafil ([3]; Tadalafil 33.33 μM vs DMSO): 6.6
- MFI ([3]; Tadalafil 33.33 μM): 80088
- Stabilization ratio with Tadalafil ([3]; Tadalafil 100 μM vs DMSO): 8.6
- MFI ([3]; Tadalafil 100 μM): 104032

Substance: PDE5AC (#13): AcGFP fused to C-terminal DD 535-860 of PDE5A (Q589R, Y676D, L738H), SEQ ID NO. 24
- MFI ([1]; DMSO (no Vardenafil)): 14659
- Basal (DMSO/Parental) [1]: 11.3
- Basal [1]: 7.50
- Stabilization ratio with Vardenafil ([1]; Vardenafil 0.002 μM vs DMSO): 1.3
- MFI ([1]; Vardenafil 0.002 μM): 18393
- MFI ([1]; Vardenafil 0.005 μM): 27661
- Stabilization ratio with Vardenafil ([1]; Vardenafil 0.014 μM vs DMSO): 4.1
- MFI ([1]; Vardenafil 0.014 μM): 59673
- Stabilization ratio with Vardenafil ([1]; Vardenafil 0.041 μM vs DMSO): 5.3
- MFI ([1]; Vardenafil 0.041 μM): 78117
- Stabilization ratio with Vardenafil ([1]; Vardenafil 0.123 μM vs DMSO): 6.0
- MFI ([1]; Vardenafil 0.123 μM): 88571
- Stabilization ratio with Vardenafil ([1]; Vardenafil 0.370 μM vs DMSO): 6.8
- MFI ([1]; Vardenafil 0.370 μM): 99160
- Stabilization ratio with Vardenafil ([1]; Vardenafil 1.111 μM vs DMSO): 6.8
- MFI ([1]; Vardenafil 1.111 μM): 99377
- Stabilization ratio with Vardenafil ([1]; Vardenafil 3.333 μM vs DMSO): 7.2
- MFI ([1]; Vardenafil 3.333 μM): 105500
- Stabilization ratio with Vardenafil ([1]; Vardenafil 10 μM vs DMSO): 6.7
- MFI ([1]; Vardenafil 10 μM): 97493
- Stabilization ratio with Vardenafil ([1]; Vardenafil 30 μM vs DMSO): 7.2
- MFI ([1]; Vardenafil 30 μM): 105335
- MFI ([2]; DMSO (no Sildenafil)): 15122
- Stabilization ratio with Sildenafil ([2]; Sildenafil 0.01 μM vs DMSO): 1.0
- MFI ([2]; Sildenafil 0.01 μM): 14787
- Stabilization ratio with Sildenafil ([2]; Sildenafil 0.02 μM vs DMSO): 1.1
- MFI ([2]; Sildenafil 0.02 μM): 17318
- MFI ([2]; Sildenafil 0.05 μM): 26905
- Stabilization ratio with Sildenafil ([2]; Sildenafil 0.14 μM vs DMSO): 3.2
- MFI ([2]; Sildenafil 0.14 μM): 48611
- Stabilization ratio with Sildenafil ([2]; Sildenafil 0.41 μM vs DMSO): 4.6
- MFI ([2]; Sildenafil 0.41 μM): 69042
- Stabilization ratio with Sildenafil ([2]; Sildenafil 1.23 μM vs DMSO): 5.6
- MFI ([2]; Sildenafil 1.23 μM): 84772
- Stabilization ratio with Sildenafil ([2]; Sildenafil 3.70 μM vs DMSO): 5.5
- MFI ([2]; Sildenafil 3.70 μM): 82519
- Stabilization ratio with Sildenafil ([2]; Sildenafil 11.11 μM vs DMSO): 6.1
- MFI ([2]; Sildenafil 11.11 μM): 92732
- Stabilization ratio with Sildenafil ([2]; Sildenafil 33.33 μM vs DMSO): 6.2
- MFI ([2]; Sildenafil 33.33 μM): 93336
- Stabilization ratio with Sildenafil ([2]; Sildenafil 100.00 μM vs DMSO): 5.0
- MFI ([2]; Sildenafil 100.00 μM): 76090
- Basal expression [2]: 11.7
- MFI ([3]; DMSO (no Tadalafil)): 14416
- Basal expression [3]: 11.26
- Stabilization ratio with Tadalafil ([3]; Tadalafil 0.01 μM vs DMSO): 1.0
- MFI ([3]; Tadalafil 0.01 μM): 14388
- Stabilization ratio with Tadalafil ([3]; Tadalafil 0.02 μM vs DMSO): 1.0
- MFI ([3]; Tadalafil 0.02 μM): 14908
- Stabilization ratio with Tadalafil ([3]; Tadalafil 0.05 μM vs DMSO): 1.1
- MFI ([3]; Tadalafil 0.05 μM): 16488
- MFI ([3]; Tadalafil 0.14 μM): 21292
- Stabilization ratio with Tadalafil ([3]; Tadalafil 0.41 μM vs DMSO): 2.3
- MFI ([3]; Tadalafil 0.41 μM): 33396
- Stabilization ratio with Tadalafil ([3]; Tadalafil 1.23 μM vs DMSO): 4.1
- MFI ([3]; Tadalafil 1.23 μM): 58867
- Stabilization ratio with Tadalafil ([3]; Tadalafil 3.7 μM vs DMSO): 5.7
- MFI ([3]; Tadalafil 3.7 μM): 81755
- Stabilization ratio with Tadalafil ([3]; Tadalafil 11.11 μM vs DMSO): 6.4
- MFI ([3]; Tadalafil 11.11 μM): 92484
- Stabilization ratio with Tadalafil ([3]; Tadalafil 33.33 μM vs DMSO): 6.7
- MFI ([3]; Tadalafil 33.33 μM): 96959
- Stabilization ratio with Tadalafil ([3]; Tadalafil 100 μM vs DMSO): 7.3
- MFI ([3]; Tadalafil 100 μM): 105048
